Source: PMC5590075, “Synthesis, Antimicrobial, and Antioxidant Activities of Chalcogen-Containing Nitrone Derivatives from (R)-citronellal” (Medicines, 2017)

Legend:
ABTS radical scavenging = settings: mean ± SD (n = 3); for IC50: read-out: ABTS radical scavenging IC50 (concentration compound required for 50% scavenging)
Description: (§1) The antioxidant properties of the synthesized compounds (5a–d and 10) were evaluated by three different methods in vitro: DPPH (1,1-diphenyl-2-picryl-hydrazyl) and ABTS^+ (2,2′-azino-bis(3-ethylbenzthiazoline-6-sulfonic acid) radical scavenging ability and ferric ion reducing antioxidant power (FRAP). All drugs were dissolved in dimethyl sulfoxide (DMSO) at concentrations of 1–500 µM. These assays were performed according to the literature and details of these experiments are described elsewhere (see the ‘Results and Discussion’ section for the references). […]
(§2) 2.3. Antioxidant activity assays
(§3) The antioxidant properties of the synthesized compounds were evaluated by three different methods in vitro: DPPH and ABTS+ radical scavenging activity and ferric ion reducing antioxidant power (FRAP). All drugs were dissolved in dimethyl sulfoxide (DMSO). The experimental results were given as the means ± standard deviation (SD) to show the variations among the groups. The statistical analysis was performed using one‐way analysis of variance (ANOVA) followed by Newman‐Keuls multiple comparison test when appropriate. The differences were considered statistically significant at a probability of less than 5% (p < 0.05). All tests were performed at least three times in duplicate. The IC50 values (the concentration of sample required to scavenge 50% of the free radicals) were calculated from the graph of the scavenging effect percentage versus the […]
(§4) 2.4. Radical Scavenging Activity
To determine if compounds 5a–d and 10 present in vitro antioxidant activity against free radicals, DPPH and ABTS+ scavenging capability were evaluated at different concentrations. […]
(§5) The ABTS radical scavenging activity was determined according to the method described by Erel. Different concentrations of compounds 5a–d and 10 (10–500 μ M) were mixed with the ABTS+ solution, and the decrease in the absorbance at 734 nm was recorded. […]
(§6) values, as calculated by the following equation:
(§7) I% = [(Ac−As/Ac) × 100] (1)
3. Ferric ion reducing antioxidant power (FRAP) […]
(§8) reducing capacity of compounds 5a–d and 10.
[8] with slight modifications.
They were homogenized in a 0.1 M
The supernatants were used for determination of the δ‐ALAD activity. […]
and 500 μL of distilled water. […]
and the absorbance was read at 555 nm.

DPPH radical scavenging = settings: for DPPH radical scavenging, percentage of inhibition in relation to control: mean ± SD (n = 3); for DPPH radical scavenging activity (in words): 10–500 μM tested
Description: as §1, §2, §3, §4
To determine if compounds 5a–d and 10 present in vitro antioxidant activity against free radicals, DPPH and ABTS+ scavenging capability were evaluated at different concentrations.
The DPPH scavenging activity of compounds 5a–d and 10 (10–500 μM) was determined in accordance with the method of Sharma and Bhat and the decrease in the absorbance at 517 nm […]
as §5, §6
I% = [(Ac−As/Ac) × 100] (1) […]

[1] = Ferric ion reducing antioxidant power (FRAP); settings: mean ± SD (n = 3)
Description: The antioxidant properties of the synthesized compounds (5a–d and 10) were evaluated by three different methods in vitro: DPPH (1,1-diphenyl-2-picryl-hydrazyl) and ABTS^+ (2,2′-azino-bis(3-ethylbenzthiazoline-6-sulfonic acid) radical scavenging ability and ferric ion reducing antioxidant power (FRAP). All drugs were dissolved in dimethyl sulfoxide (DMSO) at concentrations of 1–500 µM. These assays were performed according to the literature and details of these experiments are described elsewhere (see the ‘Results and Discussion’ section for the references).
as §6, §7
3. Ferric ion reducing antioxidant power (FRAP)
as §8
[8] with slight modifications. […]

[2] = tested on: Bacillus cereus ATCC 11778; test: agar disk diffusion test; type: cell-based; settings: B. cereus, 1.0 × 10^8 CFU.mL^−1; 20 μL compound diluted in DMSO (1:1) per 6 mm disc; streptomycin 10 µg; mean of two repetitions
Source text: To evaluate the antimicrobial potential of the synthesized compounds, the following reference strains of bacteria, that are economically important in foods, were employed: Gram-positive Listeria monocytogenes ATCC 7644, Staphylococcus aureus ATCC 25923, and Bacillus cereus ATCC 11778; Gram-negative Salmonella Typhimurium ATCC 14028, Escherichia coli O157: H7 NCTC 12900 and the clinically important Pseudomonas aeruginosa ATCC 15442.
The antimicrobial activity assay using the disk diffusion test was realized using the methodology that is recommended by the Clinical Laboratory Standards Institute (CLSI). The determination of the minimum inhibitory concentration (MIC) and minimum bactericidal concentration (MBC) was performed using the macro dilution tube method, in accordance with Rota et al., with modifications. Details of these assays are provided in the Supplemental Material. […]
2.1. Antimicrobial activity assay using the disk diffusion test
The disk diffusion test followed the methodology recommended by the Clinical Laboratory Standards Institute CLSI [4]. The inoculum was standardized by standard McFarland to the concentration of 10^8 CFU.mL−1 and spread on the surface of a Petri dish containing Mueller‐Hinton (MH) agar. Then, the paper disc (6 mm) was put on a plate impregnated with 20 μL of the testing compound previously diluted in DMSO (1:1) and incubated at 37 °C for 24 hours. Zone of inhibition ≥20 mm were considered as strong inhibition, <20–12 mm as moderate inhibition, and <12 mm no inhibition. A positive control with streptomycin antibiotic (10 μg) and a negative one, with paper discs impregnated with distilled water, were used […]
2.4. Radical Scavenging Activity […]
The ABTS radical scavenging activity was determined according to the method described by Erel. Different concentrations of compounds 5a–d and 10 (10–500 μ M) were mixed with the ABTS+ solution, and the decrease in the absorbance at 734 nm was recorded.

δ-ALA-D = target: T1, δ-ALA-D (Mus musculus, UniProt P10518); test: δ-ALA-D activity in tissue supernatants (in vitro toxicity); settings: mean ± SD (n = 3)
T1 sequence (P10518 1-330): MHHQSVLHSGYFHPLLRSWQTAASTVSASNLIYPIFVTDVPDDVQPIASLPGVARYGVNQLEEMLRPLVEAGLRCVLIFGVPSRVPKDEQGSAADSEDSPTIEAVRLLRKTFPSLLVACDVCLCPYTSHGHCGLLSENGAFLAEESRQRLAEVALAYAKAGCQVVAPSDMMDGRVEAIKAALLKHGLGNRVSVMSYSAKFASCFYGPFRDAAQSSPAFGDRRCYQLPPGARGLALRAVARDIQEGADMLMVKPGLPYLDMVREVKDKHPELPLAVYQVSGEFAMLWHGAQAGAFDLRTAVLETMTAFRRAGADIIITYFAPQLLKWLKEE

Row | Structure (SMILES) | ABTS radical scavenging, percentage of inhibition in relation to control (ABTS radical scavenging; 50 μM) | ABTS radical scavenging, percentage of inhibition in relation to control (ABTS radical scavenging; 100 μM) | ABTS radical scavenging, percentage of inhibition in relation to control (ABTS radical scavenging; 500 μM) | IC50 (ABTS radical scavenging) | DPPH radical scavenging activity (in words) (DPPH radical scavenging) | Ferric ion reducing antioxidant power (FRAP), absorbance at 593 nm ([1]; 10 μM) | Ferric ion reducing antioxidant power (FRAP), absorbance at 593 nm ([1]; 50 μM) | Inhibition Zone [2] | δ-ALA-D activity (δ-ALA-D; Brain, 10 μM) | δ-ALA-D activity (δ-ALA-D; Brain, 50 μM) | δ-ALA-D activity (δ-ALA-D; Brain, 100 μM) | δ-ALA-D activity (δ-ALA-D; Brain, 500 μM) | δ-ALA-D activity (δ-ALA-D; Kidney, 10 μM) | δ-ALA-D activity (δ-ALA-D; Kidney, 50 μM) | δ-ALA-D activity (δ-ALA-D; Kidney, 100 μM) | δ-ALA-D activity (δ-ALA-D; Kidney, 500 μM) | δ-ALA-D activity (δ-ALA-D; Liver, 10 μM) | δ-ALA-D activity (δ-ALA-D; Liver, 50 μM) | δ-ALA-D activity (δ-ALA-D; Liver, 100 μM) | δ-ALA-D activity (δ-ALA-D; Liver, 500 μM) | also measured
1 | CC(C)=CCCC(C)C(/C=[N+](\C)[O-])Sc1ccccc1 (centres unmarked) [5a, (E)-N,3,7-Trimethyl-2-(phenylthio)oct-6-en-1-imine oxide] | 11.74 ± 0.47 % | 22.84 ± 1.02 % | 77.61 ± 0.81 % | 297 ± 1 µM | demonstrated DPPH radical scavenging activity | 0.207 ± 0.019 | 0.572 ± 0.023 | 21.5 mm | 0.44 ± 0.09 nmol PBG.mg.tn‐1.h‐1 | 0.42 ± 0.10 nmol PBG.mg.tn‐1.h‐1 | 0.40 ± 0.11 nmol PBG.mg.tn‐1.h‐1 | 0.36 ± 0.10 nmol PBG.mg.tn‐1.h‐1 | 1.17 ± 0.05 nmol PBG.mg.tn‐1.h‐1 | 1.17 ± 0.07 nmol PBG.mg.tn‐1.h‐1 | 1.09 ± 0.08 nmol PBG.mg.tn‐1.h‐1 | 0.90 ± 0.08 nmol PBG.mg.tn‐1.h‐1 | 4.99 ± 0.84 nmol PBG.mg.tn‐1.h‐1 | 4.87 ± 0.67 nmol PBG.mg.tn‐1.h‐1 | 4.71 ± 0.89 nmol PBG.mg.tn‐1.h‐1 | 4.46 ± 0.80 nmol PBG.mg.tn‐1.h‐1 | DPPH radical scavenging, percentage of inhibition in relation to control (DPPH radical scavenging; 100 μM): 2.43 ± 1.08%; DPPH radical scavenging, percentage of inhibition in relation to control (DPPH radical scavenging; 500 μM): 20.31 ± 1.26 %; Ferric ion reducing antioxidant power (FRAP), absorbance at 593 nm ([1]; 5 μM): 0.165 ± 0.007; Ferric ion reducing antioxidant power (FRAP), absorbance at 593 nm ([1]; 100 μM): 1.039 ± 0.067
2 | CC(C)=CCCC(C)(C/C=[N+](\C)[O-])Sc1ccccc1 (centres unmarked) [5c, (E)-N,3,7-trimethyl-3-(phenylthio)oct-6-en-1-imine oxide] | 4.18 ± 1.23% | 11.60 ± 1.50 % | 59.51 ± 4.16 % | 419 ± 35.8 µM | demonstrated DPPH radical scavenging activity | 0.153 ± 0.047 | 0.543 ± 0.047 | 24.5 mm | 0.30 ± 0.10 nmol PBG.mg.tn‐1.h‐1 | 0.28 ± 0.09 nmol PBG.mg.tn‐1.h‐1 | 0.26 ± 0.08 nmol PBG.mg.tn‐1.h‐1 | 0.26 ± 0.07 nmol PBG.mg.tn‐1.h‐1 | 1.10 ± 0.12 nmol PBG.mg.tn‐1.h‐1 | 1.02 ± 0.12 nmol PBG.mg.tn‐1.h‐1 | 0.99 ± 0.10 nmol PBG.mg.tn‐1.h‐1 | 0.90 ± 0.07 nmol PBG.mg.tn‐1.h‐1 | 4.63 ± 0.82 nmol PBG.mg.tn‐1.h‐1 | 4.31 ± 0.81 nmol PBG.mg.tn‐1.h‐1 | 4.12 ± 0.90 nmol PBG.mg.tn‐1.h‐1 | 3.88 ± 0.87 nmol PBG.mg.tn‐1.h‐1 | DPPH radical scavenging, percentage of inhibition in relation to control (DPPH radical scavenging; 100 μM): 2.43 ± 0.61%; DPPH radical scavenging, percentage of inhibition in relation to control (DPPH radical scavenging; 500 μM): 29.34 ± 1.00 %; Ferric ion reducing antioxidant power (FRAP), absorbance at 593 nm ([1]; 100 μM): 1.121 ± 0.160
3 | CC(C)=CCCC(C)C/C=[N+](\C)[O-] (centres unmarked) [5d, (E)-N,3,7-trimethyloct-6-en-1-imine oxide] | 0.30 ± 0.33% | 3.10 ± 0.48 % | 17.05 ± 0.47 % |  | did not present effect | 0.412 ± 0.055 | 1.198 ± 0.024 | 29 mm | 0.29 ± 0.09 nmol PBG.mg.tn‐1.h‐1 | 0.27 ± 0.10 nmol PBG.mg.tn‐1.h‐1 | 0.26 ± 0.09 nmol PBG.mg.tn‐1.h‐1 | 0.24 ± 0.08 nmol PBG.mg.tn‐1.h‐1 | 1.02 ± 0.11 nmol PBG.mg.tn‐1.h‐1 | 0.96 ± 0.12 nmol PBG.mg.tn‐1.h‐1 | 0.89 ± 0.12 nmol PBG.mg.tn‐1.h‐1 | 0.72 ± 0.07 nmol PBG.mg.tn‐1.h‐1 | 4.50 ± 0.60 nmol PBG.mg.tn‐1.h‐1 | 4.22 ± 0.78 nmol PBG.mg.tn‐1.h‐1 | 3.54 ± 0.84 nmol PBG.mg.tn‐1.h‐1 | 2.84 ± 0.57 nmol PBG.mg.tn‐1.h‐1 | Ferric ion reducing antioxidant power (FRAP), absorbance at 593 nm ([1]; 1 μM): 0.166 ± 0.008; Ferric ion reducing antioxidant power (FRAP), absorbance at 593 nm ([1]; 5 μM): 0.280 ± 0.022
